According to US11389434B2, “Methods and pharmaceutical compositions for the treatment of mast cell diseases” (INSERM (INSTITUT NATIONAL DE LA SANTE ET DE LA RECHERCHE …, priority 2017, dated 2022):
pIC50: −log10 of the molar value.

What was measured:
ROSA KIT D816V = assay: Kinetic cell proliferation assay, IncuCyte Live Cell analysis system; assay type: cell-based, human; settings: increasing doses (10 to 50 μM), 144 hours
Description: (§1) The human MCL-derived cell line HMC-1 was kindly provided by Dr. Michel Arock, Paris, France. Two sub-clones were used, namely HMC-1.1 expressing KIT V560G, and HMC-1.2 expressing KIT V560G and KIT D816V.
(§2) Human primary mast cells, patient's leukemic mast cells and ROSA KIT-WT cell line were cultured in Iscove's modified Dulbecco's Medium (IMDM)-Glutamax® (Invitrogen) supplemented with the penicillin/streptomycin 100 U/ml (P/S) (Invitrogen), 1% of sodium pyruvate (Invitrogen), 1% of vitamins (Invitrogen), 1% of glutamine (Invitrogen), 2% of non-essential amino acids (Invitrogen), 1% of a commercial solution of insulin-transferrin-sodium selenite (Invitrogen), 0.3% of albumin bovine (BSA) in presence of human SCF at 100 ng/ml (Milteny biotech). “ROSA KIT D816V”, “ROSA KIT Delta 417-419 insY” mast cells and HMC-1 lines which have mutated KIT receptor (CD117) grow in the same media described above but in absence of hSCF.
(§3) Kinetic cell proliferation assays were performed using the IncuCyte® Live Cell analysis system with 10 000 cells/well in triplicate and during one week in presence or absence of chemicals compounds, Gant61, Vismodegib and, individually or in combination, to determine their effect on mast cell proliferation. Compounds were added the first day at different doses and the media was not changed over the 7 days. At the end of the week, mast cells death was investigated by flow cytometry using 7-AAD viability staining solution.

ROSA KIT WT = assay: as above; assay type: cell-based, human; settings: increasing doses (10 to 50 μM), 144 hours
Description: as §1, §2, §3

ROSA WT = assay: Western blot of proteins associated with cell proliferation or apoptosis; assay type: cell-based, human; settings: increasing doses
Description: as §1, §2
(§4) After an overnight starvation of 5 million cells from each kind of cells described above, cells were treated with different doses of chemical agonists (such as purmorfamine) or antagonists (such as Gant61) of HH pathway and for several time-laps. Cells were then collected to extract RNA or proteins to perform gene expression analysis by RT-qPCR or western blot analysis. […]

ROSA D816V = assay: as above; assay type: cell-based, human; settings: increasing doses
Description: as §1, §2, §4

leukemic MC = assay: Leukemic mast cell death; assay type: cell-based, human; settings: data not shown
Description: as §1, §2
Kinetic cell proliferation assays were performed using the IncuCyte® Live Cell analysis system with 10 000 cells/well in triplicate and during one week in presence or absence of chemicals compounds, Gant61, Vismodegib and, individually or in combination, to determine their effect on mast cell proliferation. Compounds were added the first day at different doses and the media was not changed over the 7 days. […]

mast cells = assay: Mast cell death by flow cytometry, 7-AAD viability staining; assay type: cell-based, human
Description: as §1, §2, §3

ROSA KIT K417 = assay: Kinetic cell proliferation assay, IncuCyte Live Cell analysis system; assay type: cell-based, human; settings: ROSA KIT K417, increasing doses (10 to 50 μM), 144 hours
[1] = system: conventional PKC isoforms (α, β, and γ), Syk, FLK1, Akt, PKA, c-Kit, C-Fgr, c-Src, FLT3, PDFRβ, VEGFR1, and VEGFR2; settings: several serine/threonine and tyrosine kinases; cited from earlier work
GLI1 protein = assay: Western blot of GLI1 after stimulation with SMO agonist; assay type: cell-based; settings: human MC lines (ROSA KIT WT, KIT D816V), purmorphamine 2 or 5 μM, 12 or 24 hours
Description: After an overnight starvation of 5 million cells from each kind of cells described above, cells were treated with different doses of chemical agonists (such as purmorfamine) or antagonists (such as Gant61) of HH pathway and for several time-laps. Cells were then collected to extract RNA or proteins to perform gene expression analysis by RT-qPCR or western blot analysis. Hedgehog genes Gli1-2-3, Smo, Patch receptors, SHH-IHH-DHH ligands and the tumor supressor Bcl2 gene were investigated. Hedgehog proteins (Gli1 and Gli3), proteins involved in apoptosis (Bcl2, caspase3, Bcl-xl) and in PI3K/AKT/mTOR pathway were investigated.

## CN(C)c1ccccc1CN1CCCN(Cc2ccccc2N(C)C)C1c1ccncc1 [GANT61]
ROSA KIT D816V
  proliferation (percentage of confluence): inhibited
ROSA KIT WT
  proliferation (percentage of confluence): inhibited
ROSA WT
  Expression levels of mTOR, p-AKT, AKT, MYC, Caspase3, BCL2, and BCLX-L proteins: decreased
ROSA D816V
  Expression levels of mTOR, p-AKT, AKT, MYC, Caspase3, BCL2, and BCLX-L proteins: decreased
Leukemic MC
  leukemic MC death: induced leukemic MC death
Mast cells; GANT61 5 μM
  mast cells death: 5%
Mast cells; GANT61 50 μM, data not shown
  mast cells death: more than 90%
ROSA KIT K417
  proliferation (percentage of confluence): inhibited

## CO[C@@H]1[C@H](N(C)C(=O)c2ccccc2)C[C@H]2O[C@]1(C)n1c3ccccc3c3c4c(c5c6ccccc6n2c5c31)C(=O)NC4 [PKC 412, N-[(9S,10R,11R,13R)-2,3,10,11,12,13-hexahydro-10-methoxy-9-methyl-1-oxo-9,13-epoxy-1H,9H-diindolo[1,2,3-gh:3′,2′,1′-lm]pyrrolo[3,4-j][1,7]benzodiazonin-11-yl]-N-methyl-benzamide]
[1]
  pIC50: 6.30 to 7.10

## c1ccc2c(Oc3nc(Nc4ccc(N5CCOCC5)cc4)c4ncn(C5CCCCC5)c4n3)cccc2c1 [purmorphamine]
GLI1 protein
  GLI1 expression: clearly increased

## CS(=O)(=O)c1ccc(C(=O)Nc2ccc(Cl)c(-c3ccccn3)c2)c(Cl)c1 [vismodegib]
ROSA KIT D816V
  proliferation (percentage of confluence): prevented the proliferation
ROSA KIT WT
  proliferation (percentage of confluence): prevented the proliferation
Mast cells; whatever the cell type, data not shown
  induction of cell death compared with GANT61: much less important
ROSA KIT K417
  proliferation (percentage of confluence): prevented the proliferation
